Data from the NIST ThermoML archive (doi:10.1016/j.jct.2016.04.008).

Conditions: Liquid; for mass density: 100 kPa, Buoyancy - hydrostatic balance with magnetic suspension - one sinker

CCCCCCCCCCn1cc[n+](C)c1.F[B-](F)(F)F [1-decyl-3-methylimidazolium tetrafluoroborate]
surface tension liquid-gas [mN/m]
Conditions | Ring tensiometer | Willhelmy plate method
283.21 K | 30.74 | –
287.98 K | 30.53 | –
288.03 K | – | 30.17
293.33 K | 30.27 | –
293.46 K | – | 29.96
298.21 K | 30.11 | –
298.28 K | – | 29.8
303.14 K | 29.86 | –
303.2 K | – | 29.62
308.05 K | 29.66 | –
308.07 K | – | 29.48
313.12 K | 29.45 | –
313.16 K | – | 29.27
318.14 K | – | 29.09
318.22 K | 29.18 | –
322.9 K | – | 28.89
322.91 K | 28.87 | –
328.39 K | 28.69 | 28.66
333.13 K | – | 28.48
333.2 K | 28.44 | –
338.26 K | – | 28.28
338.28 K | 28.26 | –
343.17 K | 28.02 | –
343.25 K | – | 28.12
348.56 K | – | 27.89
348.57 K | 27.79 | –
353.03 K | – | 27.7
353.07 K | 27.52 | –
357.72 K | – | 27.55
357.75 K | 27.31 | –
363.98 K | 27.11 | 27.32

Conditions | mass density [kg/m3]
283.26 K | 1083.12
288.04 K | 1079.26
293.48 K | 1075.46
298.32 K | 1072.34
303.26 K | 1069.35
308.12 K | 1064.91
313.23 K | 1061.76
318.16 K | 1058.04
323.03 K | 1054.91
328.43 K | 1051.67
333.15 K | 1048.43
338.41 K | 1044.81
343.37 K | 1041.55
348.69 K | 1038.22
353.21 K | 1034.92
357.87 K | 1032.03
363.98 K | 1028.48

CCCCCCCn1cc[n+](C)c1.F[B-](F)(F)F [1-heptyl-3-methylimidazolium tetrafluoroborate]
surface tension liquid-gas [mN/m]
Conditions | Ring tensiometer | Willlhelmy plate method
263.76 K | 37.38 | –
268.69 K | 37.21 | –
273.9 K | 36.87 | –
278.51 K | 36.66 | –
283.18 K | – | 36.23
283.21 K | 36.42 | –
288.47 K | – | 35.98
288.49 K | 36.15 | –
293.29 K | 36.03 | 35.74
298.21 K | 35.76 | 35.54
303.1 K | 35.54 | –
303.11 K | – | 35.31
308.19 K | – | 35.1
308.2 K | 35.18 | –
313.21 K | 34.9 | –
313.24 K | – | 34.82
317.78 K | 34.74 | –
317.81 K | – | 34.6
323 K | 34.45 | –
323.06 K | – | 34.33
327.79 K | 34.24 | –
327.8 K | – | 34.13
333.01 K | 33.87 | –
333.09 K | – | 33.82
338.61 K | – | 33.62
338.64 K | 33.54 | –
342.42 K | 33.44 | –
342.5 K | – | 33.39
348.76 K | – | 33.17
348.79 K | 33.17 | –
353.93 K | 32.8 | –
353.99 K | – | 32.86
357.12 K | – | 32.66
357.16 K | 32.47 | –
364.34 K | 31.97 | –
364.4 K | – | 32.34

Conditions | mass density [kg/m3]
263.87 K | 1147.27
268.63 K | 1143.58
273.63 K | 1139.44
278.6 K | 1136.36
283.19 K | 1133.24
288.51 K | 1129.35
293.3 K | 1126.02
298.21 K | 1122.73
303.11 K | 1119.42
308.22 K | 1115.86
313.23 K | 1112.13
317.78 K | 1108.94
322.97 K | 1105.52
327.81 K | 1102.47
333.04 K | 1098.48
338.46 K | 1095.77
342.6 K | 1092.48
348.77 K | 1089.11
353.97 K | 1085.93
357.24 K | 1082.94
364.28 K | 1078.73

CCCCCn1cc[n+](C)c1.F[B-](F)(F)F [1-methyl-3-pentyl-imidazolium tetrafluoroborate]
Conditions | mass density [kg/m3]
263.11 K | 1196.7
268.47 K | 1193.07
273.58 K | 1189.42
278.77 K | 1185.81
283.09 K | 1182.43
288.3 K | 1178.63
292.92 K | 1175.26
298.19 K | 1171.74
303.03 K | 1168.37
308.1 K | 1164.61
313 K | 1161.19
318.13 K | 1157.51
323.84 K | 1154.03
328.48 K | 1150.65
333.48 K | 1147.02
338.25 K | 1143.81
342.51 K | 1140.95
348.51 K | 1137.46
354.03 K | 1133.59
358.73 K | 1130.69
365.22 K | 1126.55

surface tension liquid-gas [mN/m]
Conditions | Ring tensiometer | Willhelmy plate method
263.64 K | 43.08 | –
269.34 K | 42.79 | –
273.78 K | 42.67 | –
278.75 K | 42.24 | –
283.06 K | – | 41.81
283.1 K | 42.19 | –
288.31 K | 41.94 | 41.58
292.93 K | – | 41.36
292.94 K | 41.69 | –
298.2 K | 41.4 | 41.1
303.06 K | – | 40.86
303.07 K | 41.17 | –
308.07 K | 40.88 | –
308.1 K | – | 40.6
313.01 K | 40.64 | –
313.04 K | – | 40.36
318.12 K | 40.35 | –
318.17 K | – | 40.07
323.56 K | 40.02 | –
323.62 K | – | 39.72
328.29 K | 39.81 | –
328.31 K | – | 39.45
333.1 K | – | 39.18
333.29 K | 39.49 | –
338.23 K | 39.13 | 38.94
342.51 K | 38.95 | –
342.52 K | – | 38.68
348.1 K | 38.54 | –
348.11 K | – | 38.42
353.72 K | 38.21 | –
353.84 K | – | 38.09
358.24 K | 38.16 | –
358.37 K | – | 37.87
364.6 K | 37.6 | –
364.61 K | – | 37.57

CCCCn1cc[n+](C)c1.F[B-](F)(F)F [1-butyl-3-methylimidazolium tetrafluoroborate]
Conditions | mass density [kg/m3]
264.16 K | 1227.3
268.12 K | 1224.12
273.71 K | 1219.13
278.76 K | 1215.77
283.03 K | 1212.73
288.51 K | 1208.73
293.06 K | 1205.28
298.21 K | 1201.97
303.18 K | 1198.44
307.95 K | 1195.03
313.18 K | 1191.08
318.12 K | 1187.23
323.27 K | 1183.84
328.23 K | 1179.81
333.27 K | 1176.33
338.88 K | 1172.3
343.23 K | 1169.53
348.21 K | 1166.02
353.25 K | 1162.72
358.57 K | 1159.04
363.9 K | 1155.79
